Data: BindingDB's records for doi:10.1111/cbdd.12457 (Universiti Kebangsaan Malaysia, Jalan Raja Muda Abdul Aziz, 2015)

Tests used:
[1] = target: T1, Prostaglandin G/H synthase 1 (Ovis aries, UniProt P05979); assay: Cyclooxygenase Assay; details: pH 8; 25 °C
T1 sequence (P05979 whole entry): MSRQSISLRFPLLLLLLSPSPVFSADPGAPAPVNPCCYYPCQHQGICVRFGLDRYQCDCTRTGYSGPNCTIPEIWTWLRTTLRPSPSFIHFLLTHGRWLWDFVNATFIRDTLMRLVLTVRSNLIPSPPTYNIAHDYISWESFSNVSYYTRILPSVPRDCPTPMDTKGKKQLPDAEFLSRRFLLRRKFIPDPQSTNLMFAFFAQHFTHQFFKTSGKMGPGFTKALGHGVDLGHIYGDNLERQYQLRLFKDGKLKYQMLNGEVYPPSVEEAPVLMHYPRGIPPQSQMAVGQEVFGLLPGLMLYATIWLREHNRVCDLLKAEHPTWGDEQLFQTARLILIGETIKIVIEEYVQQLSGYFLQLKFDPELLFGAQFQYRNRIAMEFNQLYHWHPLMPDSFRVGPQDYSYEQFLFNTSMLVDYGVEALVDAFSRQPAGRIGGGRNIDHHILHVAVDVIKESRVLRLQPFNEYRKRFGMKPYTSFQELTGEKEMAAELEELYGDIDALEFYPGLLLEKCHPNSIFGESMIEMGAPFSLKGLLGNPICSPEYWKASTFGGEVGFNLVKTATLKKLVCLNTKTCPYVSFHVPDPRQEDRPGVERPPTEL
Method: (§1) 100 mM Tris HCl buffer, pH 8.0 containing 1 µM heme and COX-1 (ovine) or COX-2(human recombinant), which was preincubated for 10 min in a water bath at 37 °C was used for reaction mixture preparation. Addition of 10 µL arachidonic acid to the reaction mixture (final concentration 100 µM) was used to initiate reaction. After 2 min reaction was stopped by addition of 1 M HCl. PGE2 in the reaction mixture was determined using ELISA method. 100 mM potassium phosphate buffer (pH 7.4) was used to dilute the DMSO stock solutions of the test compounds to the desired concentration. This reaction mixture was transferred to a 96-well platethat was precoated with a mouse anti-rabbit IgG. Tracer prostaglandin acetylcholine esterase and primary antibody (mouse anti PGE2) were also added to the plates followed by overnight incubation at room temperature. After overnightincubation, reaction mixtures were pipetted out and the wells were washed with 10 mM potassium phosphate buffer containing 0.05% Twe

[2] = target: T2, Prostaglandin G/H synthase 2 (Homo sapiens, UniProt P35354); assay: Cyclooxygenase Assay; details: pH 8; 25 °C
T2 sequence (P35354 whole entry): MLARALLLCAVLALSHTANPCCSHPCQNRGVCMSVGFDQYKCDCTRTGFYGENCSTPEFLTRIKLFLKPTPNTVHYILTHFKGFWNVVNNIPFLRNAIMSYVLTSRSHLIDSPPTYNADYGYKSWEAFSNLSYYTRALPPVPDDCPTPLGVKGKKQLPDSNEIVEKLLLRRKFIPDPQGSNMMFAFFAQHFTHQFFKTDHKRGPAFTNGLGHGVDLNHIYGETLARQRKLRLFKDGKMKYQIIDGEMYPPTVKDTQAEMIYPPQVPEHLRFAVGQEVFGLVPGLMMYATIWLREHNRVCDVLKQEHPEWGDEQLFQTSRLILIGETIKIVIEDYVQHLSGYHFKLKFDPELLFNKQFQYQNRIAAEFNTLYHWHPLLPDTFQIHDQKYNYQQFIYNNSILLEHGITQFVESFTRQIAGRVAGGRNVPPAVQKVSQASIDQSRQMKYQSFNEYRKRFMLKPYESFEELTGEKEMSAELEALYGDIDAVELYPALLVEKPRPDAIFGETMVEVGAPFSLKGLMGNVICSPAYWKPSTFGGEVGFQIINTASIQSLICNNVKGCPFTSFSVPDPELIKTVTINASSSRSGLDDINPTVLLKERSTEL
Method: as §1

Phospholipase A2 group V = target: T3, Phospholipase A2 group V (Homo sapiens, UniProt P39877); assay: sPLA2V Activity Assay; details: pH 7.5; 25 °C
T3 sequence (P39877 whole entry): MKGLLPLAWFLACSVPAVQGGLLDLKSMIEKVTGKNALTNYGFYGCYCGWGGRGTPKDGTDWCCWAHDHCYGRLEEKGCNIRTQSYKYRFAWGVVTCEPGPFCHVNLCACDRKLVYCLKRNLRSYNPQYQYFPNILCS
Method: Briefly, sn-2ester bond of the substrate 1,2-bis(heptanoylthio)-glycerophosphocholine was hydrolyzed by PLA2-V followed by the exposure of free thiols. These thiols activated the conversion of DTNB (5,5–dithio-bis-(2-nitrobenzoic acid) to 2-nitro-5-thiobenzoic acid, which was photometrically detected at 405 nm. After this, the assay proceeded in an aqueous buffer solution (pH 7.5) containing KCl (94 mM), CaCl2 (9 mM), Tris (24 mM), and Triton-X 100 ([…]). Before the assay was started, substrate and PLA2-V was resuspended in assay buffer whereas DTNB was dissolved in an aqueous solution of Tris-HCl (pH 8) yielding an enzyme and DTNB concentrations of 100 ng/mL and 87 BM, respectively. 96-well micro titre plates containing substrate solution, DTNB, and the respective test substance were used to carry out assays at room temperature.

Row | SMILES | IC50 [1] | IC50 [2] | IC50 (Phospholipase A2 group V)
1 | COc1ccc2c(OC)ccc(C3CC(c4cc5ccccc5o4)=NN3C(N)=S)c2c1 (stereo unspecified) [3-Benzofuran-2-yl-5-(4,7-dimethoxy-naphthalen-1-yl)-4,5-dihydro-pyrazole-1-carbothioic acid amide (2a)] | 7.22 µM | 12.3 µM | 21.1 µM
2 | COc1cc2ccccc2c(C2CC(c3ccc4c(c3)OCCO4)=NN2C(=O)Nc2ccc(Cl)cc2)c1OC (stereo unspecified) [3-(2,3-Dihydro-benzo[1,4]dioxin-6-yl)-5-(2,3-dimethoxy-naphthalen-1-yl)-4,5-dihydropyrazole-1-carboxylic acid (4-chloro-phenyl)-amide (5b)] | 1.17 µM | 12.3 µM | 17.3 µM
3 | COc1ccc2c(OC)ccc(C3CC(c4ccc5c(c4)OCCO5)=NN3C(=O)Nc3ccc(Cl)cc3)c2c1 (stereo unspecified) [3-(2,3-Dihydro-benzo[1,4]dioxin-6-yl)-5-(4,7-dimethoxy-naphthalen-1-yl)-4,5-dihydropyrazole-1-carboxylic acid (4-chloro-phenyl)-amide (6b)] | 0.94 µM | 12 µM | 5.12 µM
4 | COc1cc2ccccc2c(/C=C/C(=O)c2cc3ccccc3o2)c1OC [1-Benzofuran-2-yl-3-(2,3-dimethoxy-naphthalen-1-yl)-propenone (3)] | 12.5 µM | 12.2 µM | 12.7 µM
5 | COc1ccc2c(OC)ccc(/C=C/C(=O)c3cc4ccccc4o3)c2c1 [1-Benzofuran-2-yl-3-(4,7-dimethoxy-naphthalen-1-yl)-propenone (2)] | 15 µM | 19.1 µM | 27.8 µM
6 | CN(C)c1ccc(C2CC(c3ccc4c(c3)OCCO4)=NN2C(=O)Nc2ccc(Cl)cc2)c2ccccc12 (stereo unspecified) [3-(2,3-Dihydro-benzo[1,4]dioxin-6-yl)-5-(4-dimethylamino-naphthalen-1-yl)-4,5-dihydropyrazole-1-carboxylic acid (4-chloro-phenyl)-amide (4b)] | 0.44 µM | 9.72 µM | 17.2 µM
7 | COc1ccc2c(OC)ccc(C3CC(c4cc5ccccc5o4)=NN3C(=O)Nc3ccc(Cl)cc3)c2c1 (stereo unspecified) [3-Benzofuran-2-yl-5-(4,7-dimethoxy-naphthalen-1-yl)-4,5-dihydro-pyrazole-1-carboxylic acid(4-chloro-phenyl)-amide (2b)] | 2.14 µM | 11.1 µM | 14.5 µM
8 | CN(C)c1ccc(/C=C/C(=O)c2ccc3c(c2)OCCO3)c2ccccc12 [1-(2,3-Dihydro-benzo[1,4]dioxin-6-yl)-3-(4-dimethylamino-naphthalen-1-yl)-propenone (4)] | 7.06 µM | 24.5 µM | 32.2 µM
9 | C[C@@H]1C[C@H]2[C@@H]3CCC4=CC(=O)C=C[C@]4(C)[C@@]3(F)[C@@H](O)C[C@]2(C)[C@@]1(O)C(=O)CO [dexamethasone (tetramethyl-rhodamine conjugated )] | – | – | 0.62 µM
10 | CN(C)c1ccc(C2CC(c3cc4ccccc4o3)=NN2C(=O)Nc2ccc(Cl)cc2)c2ccccc12 (stereo unspecified) [3-Benzofuran-2-yl-5-(4-dimethylamino-naphthalen-1-yl)-4,5-dihydro-pyrazole-1-carboxylic acid(4-chloro-phenyl)-amide (1b)] | 1.87 µM | 9.1 µM | 22.2 µM
11 | COc1ccc2c(OC)ccc(C3CC(c4ccc5c(c4)OCCO5)=NN3C(N)=S)c2c1 (stereo unspecified) [3-(2,3-Dihydro-benzo[1,4]dioxin-6-yl)-5-(4,7-dimethoxy-naphthalen-1-yl)-4,5-dihydro-pyrazole-1-carbothioic acid amide (6a)] | 2.82 µM | 12.6 µM | 7.12 µM
12 | COc1cc2ccccc2c(C2CC(c3ccc4c(c3)OCCO4)=NN2C(N)=S)c1OC (stereo unspecified) [3-(2,3-Dihydro-benzo[1,4]dioxin-6-yl)-5-(2,3-dimethoxy-naphthalen-1-yl)-4,5-dihydro-pyrazole-1-carbothioic acid amide (5a)] | 3.42 µM | 17.8 µM | 19.2 µM
13 | COc1cc2ccccc2c(C2CC(c3cc4ccccc4o3)=NN2C(=O)Nc2ccc(Cl)cc2)c1OC (stereo unspecified) [3-Benzofuran-2-yl-5-(2,3-dimethoxy-naphthalen-1-yl)-4,5-dihydro-pyrazole-1-carboxylic acid(4-chloro-phenyl)-amide (3b)] | 0.99 µM | 5.02 µM | 8.46 µM
14 | CN(C)c1ccc(C2CC(c3cc4ccccc4o3)=NN2C(N)=S)c2ccccc12 (stereo unspecified) [3-Benzofuran-2-yl-5-(4-dimethylamino-naphthalen-1-yl)-4,5-dihydro-pyrazole-1-carbothioic acid amide (1a)] | 4.53 µM | 14.5 µM | 35.4 µM
15 | COc1cc2ccccc2c(C2CC(c3cc4ccccc4o3)=NN2C(N)=S)c1OC (stereo unspecified) [3-Benzofuran-2-yl-5-(2,3-dimethoxy-naphthalen-1-yl)-4,5-dihydro-pyrazole-1-carbothioic acid amide (3a)] | 8.06 µM | 10.3 µM | 9.17 µM
16 | CN(C)c1ccc(C2CC(c3ccc4c(c3)OCCO4)=NN2C(N)=S)c2ccccc12 (stereo unspecified) [3-(2,3-Dihydro-benzo[1,4]dioxin-6-yl)-5-(4-dimethylamino-naphthalen-1-yl)-4,5-dihydropyrazole-1-carbothioic acid amide (4a)] | 1.12 µM | 13.2 µM | 22.2 µM
